Assay results reported in patent US20260262638A1, “AGRICULTURAL COMPOSITION” (priority 2022, published 2026).
Values joined by “and” are separate entries in the source; they are usually repeats but may differ in a detail not shown here. Identical values can stand only once.

Tested on: nematodes
Assay: Nematicide laboratory bioassay in ELISA plates, nematode mortality 24 h after treatment
Assay type: in vivo
Description: Bioassays were designed to determine the efficacy of tested formulations, and included the following steps: • 1. nematode extraction from carrot disks using the mesh extraction method; • 2. counting of extracted nematodes in a sample of 100 μL of water; • 3. preferably, nematode count in such a sample is between 40-80 nematodes; • 4. determining efficacy in ELISA plates; • 5. preparing a stock solution that is 10 times more diluted than the main formulation for all treatments; • 6. for treatments tested at 5% or 1.5%, aliquots of 50 μL or 15 μL of the corresponding stock solution were introduced to a well, respectively. Volume was completed with 50 μL of the nematode extract, except for treatments tested at 1.5%, an additional 35 μL of distilled water was introduced to reach a total volume of 100 μL. Content of the well was sufficiently mixed with a pipette, to ensure proper distribution of both nematodes and treatment components; • 7. performing at least 6 replicates of every treatment. The flask containing the nematode colony was mixed by manual shaking every time before nematodes were introduced to the well. This way we ensure a somewhat homogenous nematode count and avoid nematodes settling at the bottom of the flask; • 8. keeping the whole ELISA plate in dark conditions for 24 hours after introduction of the treatment; and • 9. assessing nematode mortality 24 hours after treatment under stereoscope. Nematodes that were moving were considered alive. Nematodes that were not moving were poked with a fine brush, if they respond to the poking with slight movements, they were considered alive. If not, they were considered dead.
The only validity criterium was that nematode mortality in the negative controls should not exceed 10%.
The raw mortality data was analyzed using RStudio (version 1.4.1717). The data sets were subjected to Shapiro-Wilk test for normality (α=0.05). Data was not normally distributed; therefore, a Kruskal-Wallis test was applied. Where there was significance, a Wilcoxon rank sum t-test was performed for pairwise comparisons between treatment groups.

[1] = mean over replicates, 24 h, tested dose per Table 2
[2] = sum over replicates, 24 h, tested dose per Table 2

In the case of `CNC(=O)O/N=C(\SC)C(=O)N(C)C` [Oxamyl], the mean alive [1] is reported as 20.50, the mean dead [1] is reported as 22.17 and the alive (nematodes counted alive per replicate well, 24 h after treatment, tested dose per Table 2) is reported as 22 and 20 and 25 and 17 and 24 and 18 and 7 and 27 and 5 and 34 and 21 and 26. The Dead (nematodes counted dead per replicate well, 24 h after treatment, tested dose per Table 2 (5%, 1.5% or 1% w/v)) was 24 and 34 and 29 and 20 and 31 and 39 and 15 and 4 and 18 and 5 and 22 and 25, the total alive [2] was 246 and the total dead [2] was 266. The “Mortality (%) 24 h post exposure” value (tested dose per Table 2 (5%, 1.5% or 1% w/v)) was 50.76%.
